Values joined by “and” are separate entries in the source; they are usually repeats but may differ in a detail not shown here. Equal values may be shown once. Toxic doses and inconclusive results are not listed.
Tested on: P388 leukemia ip, CD2F1 mice, survival T/C
Test: NCI In Vivo Anticancer Drug Screen. Data for tumor model P388 Leukemia (intraperitoneal) in CD2F1 (CDF1) mice
Details: endpoint: median survival time, higher = longer survival
How it was run: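 Mice carrying the transplanted tumor received test compound or vehicle. Survival was recorded in each group, and the value is the treated-group measurement divided by that of the vehicle-treated control group.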

[1] = dose: 50.0 mg/kg/injection, schedule: Q01DX009 (ip), vehicle: saline with Tween-80
[2] = dose: 100.0 mg/kg/injection, schedule: Q01DX009 (ip), vehicle: saline with Tween-80
[3] = dose: 100.0 mg/kg/injection, schedule: Q04DX002 (ip), vehicle: saline with Tween-80
[4] = dose: 200.0 mg/kg/injection, schedule: Q04DX002 (ip), vehicle: saline with Tween-80
[5] = dose: 400.0 mg/kg/injection, schedule: Q04DX002 (ip), vehicle: saline with Tween-80
[6] = dose: 6.25 mg/kg/injection, schedule: Q01DX009 (ip), vehicle: Klucel (hydroxypropylcellulose) (HPC)
[7] = dose: 12.5 mg/kg/injection, schedule: Q01DX009 (ip), vehicle: Klucel (hydroxypropylcellulose) (HPC)
[8] = dose: 25.0 mg/kg/injection, schedule: Q01DX009 (ip), vehicle: Klucel (hydroxypropylcellulose) (HPC)
[9] = dose: 100.0 mg/kg/injection, schedule: Q01DX001 (ip), vehicle: Klucel (hydroxypropylcellulose) (HPC)
[10] = dose: 200.0 mg/kg/injection, schedule: Q01DX001 (ip), vehicle: Klucel (hydroxypropylcellulose) (HPC)
[11] = dose: 400.0 mg/kg/injection, schedule: Q01DX001 (ip), vehicle: Klucel (hydroxypropylcellulose) (HPC)
[12] = dose: 100.0 mg/kg/injection, schedule: Q04DX003 (ip), vehicle: saline with Tween-80
[13] = dose: 200.0 mg/kg/injection, schedule: Q04DX003 (ip), vehicle: saline with Tween-80
[14] = dose: 400.0 mg/kg/injection, schedule: Q04DX003 (ip), vehicle: saline with Tween-80
[15] = dose: 200.0 mg/kg/injection, schedule: Q01DX009 (ip), vehicle: saline with Tween-80
[16] = dose: 50.0 mg/kg/injection, schedule: Q01DX005 (ip), vehicle: Klucel (hydroxypropylcellulose) (HPC)
[17] = dose: 100.0 mg/kg/injection, schedule: Q01DX005 (ip), vehicle: Klucel (hydroxypropylcellulose) (HPC)

## COc1cc(NC(=O)CN(CCCl)CCCl)cc(OC)c1OC
dose: 25.0 mg/kg/injection, schedule: Q01DX009 (ip), vehicle: saline with Tween-80
  T/C: 157 % of control
[1]
  T/C: 213 % of control
dose: 100.0 mg/kg/injection, schedule: Q01DX009 (ip), vehicle: saline sonified
  T/C: 163 % of control
[2]
  T/C: 120 % of control
dose: 132.0 mg/kg/injection, schedule: Q04DX003 (ip), vehicle: saline sonified
  T/C: 100 % of control
dose: 200.0 mg/kg/injection, schedule: Q01DX009 (ip), vehicle: saline sonified
  T/C: 159 % of control
dose: 200.0 mg/kg/injection, schedule: Q04DX003 (ip), vehicle: saline sonified
  T/C: 110 % of control

## CC(=O)Cn1ccccc1=O
dose: 60.0 mg/kg/injection, schedule: Q01DX005 (ip), vehicle: saline
  T/C: 99 % of control
dose: 120.0 mg/kg/injection, schedule: Q01DX005 (ip), vehicle: saline
  T/C: 94 % of control
dose: 240.0 mg/kg/injection, schedule: Q01DX005 (ip), vehicle: saline
  T/C: 99 % of control

## C=C1CC2(CCC3(C)C(CCC4C5CCC(=O)C5(C)CCC43)C2)OC1=O (centres undefined)
[3]
  T/C: 95 % of control
[4]
  T/C: 93 % of control
[5]
  T/C: 96 % of control

## CC12CCC3c4ccc(O)cc4CCC3C1C/C(=C\C(=O)O)C2=O (centres undefined)
dose: 3.13 mg/kg/injection, schedule: Q01DX009 (ip), vehicle: Klucel (hydroxypropylcellulose) (HPC)
  T/C: 104 % of control
[6]
  T/C: 111 % of control
[7]
  T/C: 108 % of control
[8]
  T/C: 111 % of control

## CC1(C)C2CCC1(C)C(N1C(=O)N=NC1=O)C2 (centres undefined)
dose: 12.5 mg/kg/injection, schedule: Q01DX005 (ip), vehicle: saline with Tween-80
  T/C: 100 % of control
dose: 25.0 mg/kg/injection, schedule: Q01DX005 (ip), vehicle: saline with Tween-80
  T/C: 103 % of control
dose: 50.0 mg/kg/injection, schedule: Q01DX005 (ip), vehicle: saline with Tween-80
  T/C: 103 % of control and 91 % of control
dose: 200.0 mg/kg/injection, schedule: Q01DX005 (ip), vehicle: saline with Tween-80
  T/C: 104 % of control

## CCn1c(Cl)c(/C=N/Nc2ccccc2[N+](=O)[O-])c2cc(/C=N/Nc3ccccc3[N+](=O)[O-])ccc21
[9]
  T/C: 87 % of control
[10]
  T/C: 93 % of control
[11]
  T/C: 91 % of control

## CC1CCCC(OC(=O)Nc2ccccc2)C1 (centres undefined)
[12]
  T/C: 105 % of control
[13]
  T/C: 103 % of control
[14]
  T/C: 96 % of control

## ClCC1CSC(c2ccccc2)O1 (centres undefined)
[1]
  T/C: 90 % of control
[2]
  T/C: 109 % of control
[15]
  T/C: 101 % of control

## CC([NH-])C[NH-].[I][Pt+2][I] (centres undefined)
[3]
  T/C: 154 % of control and 151 % of control

## O=C(NNC1CCN(Cc2ccccc2)CC1)c1ccccc1
dose: 10.0 mg/kg/injection, schedule: Q04DX003 (ip), vehicle: saline with Tween-80
  T/C: 100 % of control
dose: 20.0 mg/kg/injection, schedule: Q04DX003 (ip), vehicle: saline with Tween-80
  T/C: 95 % of control

## CC(=O)OC(CCCCCCCCCCCCC(C)C)CC(=O)O (centres undefined)
dose: 8.13 mg/kg/injection, schedule: Q01DX005 (ip), vehicle: Klucel + Tween-80
  T/C: 102 % of control
dose: 16.25 mg/kg/injection, schedule: Q01DX005 (ip), vehicle: Klucel + Tween-80
  T/C: 98 % of control
dose: 32.5 mg/kg/injection, schedule: Q01DX005 (ip), vehicle: Klucel + Tween-80
  T/C: 90 % of control
dose: 65.0 mg/kg/injection, schedule: Q01DX005 (ip), vehicle: Klucel + Tween-80
  T/C: 90 % of control

## CC(N)/C(N)=N/O (centres undefined)
dose: 50.0 mg/kg/injection, schedule: Q01DX005 (ip), vehicle: saline
  T/C: 99 % of control
dose: 100.0 mg/kg/injection, schedule: Q01DX005 (ip), vehicle: saline
  T/C: 100 % of control
dose: 200.0 mg/kg/injection, schedule: Q01DX005 (ip), vehicle: saline
  T/C: 110 % of control

## O=C1CCC(O)=C1C1=NCCCC1
[3]
  T/C: 94 % of control
[4]
  T/C: 108 % of control
[5]
  T/C: 101 % of control

## COc1ccc2cccc3c4cccc5ccc(OC)c(c1c23)c54
[16]
  T/C: 97 % of control
[17]
  T/C: 99 % of control
dose: 200.0 mg/kg/injection, schedule: Q01DX005 (ip), vehicle: Klucel (hydroxypropylcellulose) (HPC)
  T/C: 99 % of control

## ClCCN(CCCl)c1ccc(CCCCN2CCCCC2)cc1
[6]
  T/C: 153 % of control
[7]
  T/C: 183 % of control

## CN(C(=O)OCc1ccccc1)c1ccc(C(=O)NC(CCC(=O)OCc2ccccc2)C(=O)OCc2ccccc2)cc1 (centres undefined)
[15]
  T/C: 94 % of control

## Cc1nn(C(N)=S)c(C)c1N=Nc1ccc(Cl)cc1Cl
dose: 50.0 mg/kg/injection, schedule: Q04DX002 (ip), vehicle: saline with Tween-80
  T/C: 101 % of control and 105 % of control
dose: 600.0 mg/kg/injection, schedule: Q04DX002 (ip), vehicle: saline with Tween-80
  T/C: 90 % of control

## CCN=C(NCC)c1ccc(NC(=O)Nc2ccc(NC(=O)Nc3ccc(C(=NCC)NCC)cc3)cc2)cc1
dose: 3.12 mg/kg/injection, schedule: Q01DX005 (ip), vehicle: Klucel (hydroxypropylcellulose) (HPC)
  T/C: 107 % of control
dose: 6.25 mg/kg/injection, schedule: Q01DX005 (ip), vehicle: Klucel (hydroxypropylcellulose) (HPC)
  T/C: 111 % of control
dose: 12.5 mg/kg/injection, schedule: Q01DX005 (ip), vehicle: Klucel (hydroxypropylcellulose) (HPC)
  T/C: 116 % of control
dose: 25.0 mg/kg/injection, schedule: Q01DX005 (ip), vehicle: Klucel (hydroxypropylcellulose) (HPC)
  T/C: 156 % of control
[16]
  T/C: 122 % of control

## CCCCOCCOCCOCCOCCCN1C(=O)C2C3C=CC(C3)C2C1=O (centres undefined)
[16]
  T/C: 97 % of control
[17]
  T/C: 100 % of control

## CCOC(=O)/C=C1/CC(C#N)(C(=O)NN)CO1 (centres undefined)
[9]
  T/C: 102 % of control
[10]
  T/C: 110 % of control
[11]
  T/C: 100 % of control

## O=C1c2c3c(c4c(c2C(=O)c2c5c(c6c(c21)CCCC6)CCCC5)CCCC4)CCCC3
dose: 7.5 mg/kg/injection, schedule: Q01DX009 (ip), vehicle: saline with Tween-80
  T/C: 99 % of control
dose: 15.0 mg/kg/injection, schedule: Q01DX009 (ip), vehicle: saline with Tween-80
  T/C: 98 % of control
dose: 30.0 mg/kg/injection, schedule: Q01DX009 (ip), vehicle: saline with Tween-80
  T/C: 103 % of control

## C[C@H]1C[C@@H]2[C@H]([C@@H](O)C[C@@]3(C)[C@H]2CC[C@]3(O)C(=O)CO)[C@@]2(C)C=CC(=O)C=C12
[1]
  T/C: 100 % of control
dose: 66.0 mg/kg/injection, schedule: Q01DX009 (ip), vehicle: saline with Tween-80
  T/C: 95 % of control
[2]
  T/C: 100 % of control
[12]
  T/C: 106 % of control and 112 % of control
dose: 132.0 mg/kg/injection, schedule: Q04DX003 (ip), vehicle: saline with Tween-80
  T/C: 109 % of control
dose: 150.0 mg/kg/injection, schedule: Q01DX009 (ip), vehicle: saline with Tween-80
  T/C: 90 % of control
[15]
  T/C: 97 % of control
[13]
  T/C: 108 % of control and 109 % of control
dose: 300.0 mg/kg/injection, schedule: Q04DX003 (ip), vehicle: saline with Tween-80
  T/C: 95 % of control
[14]
  T/C: 104 % of control and 108 % of control

## CCN(CC)CCNc1ccc([N+](=O)[O-])cc1[N+](=O)[O-]
[6]
  T/C: 93 % of control
[7]
  T/C: 105 % of control
[8]
  T/C: 114 % of control
dose: 50.0 mg/kg/injection, schedule: Q01DX009 (ip), vehicle: Klucel (hydroxypropylcellulose) (HPC)
  T/C: 99 % of control

## COc1ccc(C(=O)NC(c2ccccc2)c2cccs2)cc1 (centres undefined)
[9]
  T/C: 113 % of control
[10]
  T/C: 104 % of control
[11]
  T/C: 109 % of control

## COc1ccc(C2(C3NCCC4=C3CCCC4)CC2)cc1 (centres undefined)
[16]
  T/C: 97 % of control
[17]
  T/C: 100 % of control

## O=C(c1ccccc1Cl)n1c(=O)oc2ccccc21
dose: 50.0 mg/kg/injection, schedule: Q04DX002 (ip), vehicle: Klucel (hydroxypropylcellulose) (HPC)
  T/C: 99 % of control
dose: 100.0 mg/kg/injection, schedule: Q04DX002 (ip), vehicle: Klucel (hydroxypropylcellulose) (HPC)
  T/C: 90 % of control
dose: 200.0 mg/kg/injection, schedule: Q04DX002 (ip), vehicle: Klucel (hydroxypropylcellulose) (HPC)
  T/C: 90 % of control

## CCN(CC)CCn1cnc(C#N)c1N
dose: 50.0 mg/kg/injection, schedule: Q01DX009 (ip), vehicle: saline
  T/C: 101 % of control
dose: 100.0 mg/kg/injection, schedule: Q01DX009 (ip), vehicle: saline
  T/C: 100 % of control
dose: 200.0 mg/kg/injection, schedule: Q01DX009 (ip), vehicle: saline
  T/C: 108 % of control

Source: PubChem BioAssay AID330 (DTP/NCI, 2004)
